Biological target: T1, human LPA1 receptor (Homo sapiens, UniProt Q92633)
T1 construct: TEV protease site; Gal4-VP16 transcription factor; host or cells: Tango EDG2-bla U2OS cells
Experiment: Beta-arrestin recruitment assay to determine IC50 values for human LPAR1
Format: cell-based
Details: Tango EDG2-bla U2OS cells, antagonist assay, LPA 18:1 500 nM final
Source text: Beta-Arrestin Recruitment Assay to Determine IC50 Values for Human LPAR1
The Tango™ EDG2-bla U2OS cells are obtained from Invitrogen. These cells contain the human LPA1 receptor cDNA linked to a TEV protease site and a Gal4-VP16 transcription factor integrated into the Tango™ GPCR-bla U2OS parental cell line. This parental cell line stably expresses a beta-arrestin/TEV protease fusion protein and the beta-lactamase (bla) reporter gene under the control of a UAS response element. Upon LPA (agonist) binding, LPA1 receptor gets activated, leading to arrestin-protease recruitment and proteolytic release of the transcription factor: The transcription factor then regulates transcription of a beta-lactamase reporter construct, which is measured upon addition of the live-cell substrate.
10′000 Tango™ EDG2-bla U2OS cells are seeded in a 384-well black with clear bottom plate in 30 μl Freestyle 293 Expression Medium (Invitrogen) and incubated for 20 h at 37° C., 5% CO2. For antagonist assays, 5 μl of test compound (dilution series in DMSO/Freestyle 293 Expression medium/0.1% fatty acid free BSA (Sigma)) or buffer control are added per well and incubated for 30 min at 37° C., 5% CO2. 5 μl of LPA 18:1 (500 nM final) (solution in Freestyle 293 Expression medium/0.1% fatty acid free BSA (Sigma)) are added per well and the plate incubated for 16 h at 37° C., 5% CO2. Cells are then loaded with LiveBLAzer-FRET™ B/G Substrate (Invitrogen) for 2 h in the dark and the fluorescence emission at 460 nm and 530 nm is measured using the SynergyMx reader (BioTek). Following the background subtraction from both channels, the 460/530 nm emission ratio for each well is calculated, then plotted and fitted to a 4-parameter logistic function to obtain IC50 values. IC50 is the concentration of antagonist inhibiting 50% of the maximal response.

T1 sequence (Q92633 whole entry, the tested form may be a part): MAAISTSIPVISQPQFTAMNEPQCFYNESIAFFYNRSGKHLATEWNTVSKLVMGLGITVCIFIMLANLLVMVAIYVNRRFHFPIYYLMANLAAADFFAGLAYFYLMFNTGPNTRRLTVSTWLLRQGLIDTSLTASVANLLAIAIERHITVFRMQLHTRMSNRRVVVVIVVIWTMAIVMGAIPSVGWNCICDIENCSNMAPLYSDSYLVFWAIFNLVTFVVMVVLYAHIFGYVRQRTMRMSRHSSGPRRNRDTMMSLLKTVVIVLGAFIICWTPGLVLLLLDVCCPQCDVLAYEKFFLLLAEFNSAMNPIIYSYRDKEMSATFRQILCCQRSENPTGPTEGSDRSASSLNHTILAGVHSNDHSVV

| Compound | IC50 [µM] |
| --- | --- |
| COc1cc(Cl)ncc1NC(=O)C1(c2ccccc2C(C)C)CN(CCO)C1 [Example 18-3, N-(6-chloro-4-methoxypyridin-3-yl)-1-(2-hydroxyethyl)-3-(2-isopropylphenyl)azetidine-3-carboxamide] | 0.037 |
| 4-(4-((6-chloro-4-methoxypyridin-3-yl)carbamoyl)-4-(2-isopropylphenyl)piperidin-1-yl)-2,2-dimethyl-4-oxobutanoic acid [Example 19-20] | 0.022 |
| COC(=O)C(C)(C)CCN1CCC(C(=O)Nc2cnc(Cl)cc2OC)(c2ccccc2C(C)C)CC1 [Example 18-21, methyl 4-(4-((6-chloro-4-methoxypyridin-3-yl)carbamoyl)-4-(2-isopropylphenyl)piperidin-1-yl)-2,2-dimethylbutanoate] | 0.019 |
| CCOC(=O)C(C)(C)CCCN1CC(C(=O)Nc2cnc(Cl)cc2OC)(c2ccccc2C(C)C)C1 [Example 18-24, ethyl 5-(3-((6-chloro-4-methoxypyridin-3-yl)carbamoyl)-3-(2-isopropylphenyl)azetidin-1-yl)-2,2-dimethylpentanoate] | 0.156 |
| CCOc1cc(Cl)ncc1NC(=O)C1(c2ccccc2C(C)C)CN(CCC(C)(C)C(=O)OC)C1 [Example 18-18, methyl 4-(3-((6-chloro-4-ethoxypyridin-3-yl)carbamoyl)-3-(2-isopropylphenyl)azetidin-1-yl)-2,2-dimethylbutanoate] | 0.142 |
| COc1cc(Cl)ncc1NC(=O)C1(c2ccccc2C(C)C)CN(CC(=O)O)C1 [Example 18-6, 2-(3-((6-chloro-4-methoxypyridin-3-yl)carbamoyl)-3-(2-isopropylphenyl)azetidin-1-yl)acetic acid] | 0.128 |
| CCOc1cc(Cl)ncc1NC(=O)C1(c2ccccc2C(C)C)CN(CCC(C)(C)C(=O)O)C1 [Example 18-19, 4-(3-((6-chloro-4-ethoxypyridin-3-yl)carbamoyl)-3-(2-isopropylphenyl)azetidin-1-yl)-2,2-dimethylbutanoic acid] | 0.021 |
| COc1cc(Cl)ncc1NC(=O)C1(c2ccccc2C(C)C)CN(C[C@@H]2COC(C)(C)O2)C1 [Example 18-11, (R)-N-(6-chloro-4-methoxypyridin-3-yl)-1-((2,2-dimethyl-1,3-dioxolan-4-yl)methyl)-3-(2-isopropylphenyl)azetidine-3-carboxamide] | 0.136 |
| COc1cc(Cl)ncc1NC(=O)C1(c2ccccc2C(C)C)CN(c2nnn[nH]2)C1 [Example 25, N-(6-chloro-4-methoxypyridin-3-yl)-3-(2-isopropylphenyl)-1-(1H-tetrazol-5-yl)azetidine-3-carboxamide] | 0.27 |

Continued, values first:

| IC50 [µM] | Compound |
| --- | --- |
| 0.037 | COc1cc(Cl)ncc1NC(=O)C1(c2ccccc2C(C)C)CN(C(=O)CNS(C)(=O)=O)C1 [Example 19-15, N-(6-chloro-4-methoxypyridin-3-yl)-3-(2-isopropylphenyl)-1-((methylsulfonyl)glycyl)azetidine-3-carboxamide] |
| 0.012 | CNC(=O)N1CC(C(=O)Nc2cnc(Cl)cc2OC)(c2ccccc2C(C)C)C1 [Example 22-2, N3-(6-chloro-4-methoxypyridin-3-yl)-3-(2-isopropylphenyl)-N1-methylazetidine-1,3-dicarboxamide] |
| 0.017 | COc1cc(Cl)ncc1NC(=O)C1(c2ccccc2C(C)C)CN(C(=O)Cn2ncnn2)C1 [Example 19-10, 1-(2-(2H-tetrazol-2-yl)acetyl)-N-(6-chloro-4-methoxypyridin-3-yl)-3-(2-isopropylphenyl)azetidine-3-carboxamide] |
| 0.002 | COc1cc(Cl)ncc1NC(=O)C1(c2ccccc2C(C)C)CN(c2ccncc2C)C1 [Example 24-1, N-(6-chloro-4-methoxypyridin-3-yl)-3-(2-isopropylphenyl)-1-(3-methylpyridin-4-yl)azetidine-3-carboxamide] |
| 0.042 | COc1cc(C(F)(F)F)ncc1NC(=O)C1(c2ccccc2C(C)C)CN(S(N)(=O)=O)C1 [Example 21-11, 3-(2-isopropylphenyl)-N-(4-methoxy-6-(trifluoromethyl)pyridin-3-yl)-1-sulfamoylazetidine-3-carboxamide] |
| 0.015 | COc1cc(Cl)ncc1NC(=O)C1(c2ccccc2C(C)C)CN(C(=O)Cn2nccn2)C1 [Example 19-7, 1-(2-(2H-1,2,3-triazol-2-yl)acetyl)-N-(6-chloro-4-methoxypyridin-3-yl)-3-(2-isopropylphenyl)azetidine-3-carboxamide] |
| 0.002 | COc1cc(Cl)ncc1NC(=O)C1(c2ccccc2C(C)C)CN(c2ccncc2F)C1 [Example 24-2, N-(6-chloro-4-methoxypyridin-3-yl)-1-(3-fluoropyridin-4-yl)-3-(2-isopropylphenyl)azetidine-3-carboxamide] |
| 0.024 | COC(=O)c1ccc(N2CC(C(=O)Nc3cnc(Cl)cc3OC)(c3ccccc3C(C)C)C2)nn1 [Example 24-24, methyl 6-(3-((6-chloro-4-methoxypyridin-3-yl)carbamoyl)-3-(2-isopropylphenyl)azetidin-1-yl)pyridazine-3-carboxylate] |
| 0.056 | COc1cc(Cl)ncc1NC(=O)C1(c2ccccc2C(C)C)CN(S(=O)(=O)NCCO)C1 [Example 21-21, N-(6-chloro-4-methoxypyridin-3-yl)-1-(N-(2-hydroxyethyl)sulfamoyl)-3-(2-isopropylphenyl)azetidine-3-carboxamide] |
| 0.007 | CCOC(=O)CCNC(=O)N1CC(C(=O)Nc2cnc(Cl)cc2OC)(c2ccccc2C(C)C)C1 [Example 22-13, ethyl 3-(3-((6-chloro-4-methoxypyridin-3-yl)carbamoyl)-3-(2-isopropylphenyl)azetidine-1-carboxamido)propanoate] |
| 0.017 | COc1cc(F)ncc1NC(=O)C1(c2ccccc2C(C)C)CN(S(N)(=O)=O)C1 [Example 21-1, N-(6-fluoro-4-methoxypyridin-3-yl)-3-(2-isopropylphenyl)-1-sulfamoylazetidine-3-carboxamide] |
| 0.088 | COc1cc(Cl)ncc1NC(=O)C1(c2ccccc2C(C)C)CN(C(=O)CC(C)(C)C(=O)O)C1 [Example 19-18, 4-(3-((6-chloro-4-methoxypyridin-3-yl)carbamoyl)-3-(2-isopropylphenyl)azetidin-1-yl)-2,2-dimethyl-4-oxobutanoic acid] |
| 0.024 | COc1cc(Cl)ncc1NC(=O)C1(c2ccccc2C(C)C)CN(C(=O)Cc2c[nH]nc2O)C1 [Example 19-12, N-(6-chloro-4-methoxypyridin-3-yl)-1-(2-(3-hydroxy-1H-pyrazol-4-yl)acetyl)-3-(2-isopropylphenyl)azetidine-3-carboxamide] |
| 0.022 | COc1cc(Cl)ncc1NC(=O)C1(c2ccccc2C(C)C)CN(S(=O)(=O)NC2CC2)C1 [Example 21-13, N-(6-chloro-4-methoxypyridin-3-yl)-1-(N-cyclopropylsulfamoyl)-3-(2-isopropylphenyl)azetidine-3-carboxamide] |
| 0.018 | CCOC(=O)CNC(=O)N1CC(C(=O)Nc2cnc(Cl)cc2OC)(c2ccccc2C(C)C)C1 [Example 22-11, ethyl (3-((6-chloro-4-methoxypyridin-3-yl)carbamoyl)-3-(2-isopropylphenyl)azetidine-1-carbonyl)glycinate] |
| 0.044 | COCCOc1cc(Cl)ncc1NC(=O)C1(c2ccccc2C(C)C)CN(S(N)(=O)=O)C1 [Example 21-6, N-(6-chloro-4-(2-methoxyethoxy)pyridin-3-yl)-3-(2-isopropylphenyl)-1-sulfamoylazetidine-3-carboxamide] |

— patent publication US12479820B2, “Pyridin-3-yl derivatives” (Idorsia Pharmaceuticals Ltd, priority 2019, dated 2025)
